Measurements taken from patent US11248234B2, “Herbicide-resistant hydroxyphenylpyruvate dioxygenases” (BASF SE, priority 2015, dated 2022).

Key:
[1] = system: transgenic T1 Arabidopsis plants, Scenedesmus HPPD phenylalanine 363 exchanged by isoleucine; assay: T1 spray application; type: in vivo, Arabidopsis thaliana; conditions: FIG. 3; highest application rate
Method: (§1) Wildtype plants were sprayed in parallel at each application rate (two lower pots below dashed line) whereas T1 plants are represented by the five upper pots. Pictures were taken 8 days after treatment.
(§2) Transgenic T1 Arabidopsis plants were sprayed with the indicated amount of HPPD inhibiting herbicide. The T1 spray application is a fast method to evaluate the potential of transgenic traits even though a segregating population and only one event of respective traits is tested.

[2] = system: transgenic T1 Arabidopsis plants, Scenedesmus HPPD alanine 318 exchanged by glycine and leucine 350 substituted with methionine; assay: T1 spray application; type: in vivo, Arabidopsis thaliana; conditions: FIG. 3; pictures 8 days after treatment
Method: as §1, §2

## Cc1c(C(=O)c2cnn(C)c2O)ccc(S(C)(=O)=O)c1C1=NOCC1 [Inhibitor 1, [3-(4,5-dihydroisoxazol-3-yl)-2-methyl-4-methylsulfonyl-phenyl]-(5-hydroxy-1-methyl-pyrazol-4-yl)methanone]
[1]
  tolerance of T1 plants to spray: highly tolerant
[2]
  tolerance of T1 plants to spray: good tolerance
